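Results reflect a 48-hour exposure of cells in 96-well plates to compound at five concentrations. At the GI50, growth is halved.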 Active and inactive are the calls of the source. Cut-off read from the data, not from the text of the source: active = GI50 up to about 1.1 µM and inactive = higher.
What was measured:
Experiment in all cases: DTP human tumour cell line panel, 48 h
HT-29 = system: HT-29
SW-620 = system: SW-620
U-251 = system: U-251
RPMI-8226 = system: RPMI-8226
SNB-19 = system: SNB-19
NCI-H23 = system: NCI-H23
EKVX = system: EKVX
NCI-H460 = system: NCI-H460
NCI-H226 = system: NCI-H226
Hs-578T = system: Hs-578T
IGROV-1 = system: IGROV-1
SK-MEL-5 = system: SK-MEL-5
RXF 393 = system: RXF 393
HCC 2998 = system: HCC 2998
OVCAR-8 = system: OVCAR-8
SK-OV-3 = system: SK-OV-3
DU-145 = system: DU-145
MDA-MB-435 = system: MDA-MB-435
NCI-H522 = system: NCI-H522

Measured: GI50

CN1CCC2(CC1)C(=O)N(NC(N)=O)C(=O)C2c1ccccc1 (stereo unspecified)
inactive: HT-29 > 100 µM | SW-620 > 100 µM | U-251 > 100 µM | RPMI-8226 > 100 µM | SNB-19 > 100 µM | NCI-H23 > 100 µM | EKVX > 100 µM | NCI-H460 > 100 µM | NCI-H226 > 100 µM | Hs-578T > 100 µM | IGROV-1 > 100 µM | SK-MEL-5 > 100 µM | RXF 393 > 100 µM | HCC 2998 > 100 µM | OVCAR-8 > 100 µM | SK-OV-3 > 100 µM | DU-145 > 100 µM | MDA-MB-435 > 100 µM

CNC(=O)c1ccccc1[S+]1c2cccc3cccc(c23)C(=O)N1C (stereo unspecified)
inactive: HT-29 > 100 µM | NCI-H522 > 100 µM | SW-620 > 100 µM | U-251 > 100 µM | RPMI-8226 > 100 µM | SNB-19 > 100 µM | NCI-H23 > 100 µM | EKVX > 100 µM | NCI-H226 > 100 µM | Hs-578T > 100 µM | IGROV-1 > 100 µM | SK-MEL-5 > 100 µM | RXF 393 > 100 µM | OVCAR-8 > 100 µM | DU-145 > 100 µM | MDA-MB-435 > 100 µM

CCOC(=O)C(=O)CC(=O)C1=C(c2ccccc2OC)CC(c2cccs2)=CC1=O
inactive: HT-29 50.2 µM | NCI-H522 20.9 µM | SW-620 72.3 µM | U-251 86.3 µM | RPMI-8226 65.8 µM | SNB-19 > 100 µM | NCI-H23 > 100 µM | EKVX > 100 µM | NCI-H460 48.5 µM | NCI-H226 > 100 µM | Hs-578T 2.75 µM | IGROV-1 15.3 µM | SK-MEL-5 44.1 µM | RXF 393 86.9 µM | OVCAR-8 > 100 µM | SK-OV-3 29.7 µM | DU-145 > 100 µM | MDA-MB-435 35.9 µM

O=S(=O)(/N=C(\NO)Nc1ccc(Cl)cc1)c1cccc2nsnc12
inactive: HT-29 39.2 µM | NCI-H522 11 µM | SW-620 31.8 µM | U-251 31.6 µM | SNB-19 94.4 µM | NCI-H23 45.2 µM | EKVX 26.2 µM | NCI-H460 38.7 µM | NCI-H226 81.1 µM | Hs-578T 29.2 µM | IGROV-1 28.1 µM | SK-MEL-5 14.8 µM | RXF 393 19.6 µM | OVCAR-8 34.3 µM | SK-OV-3 76.2 µM | DU-145 41.3 µM | MDA-MB-435 23 µM

NC(=O)C(N)CC12CC3CC(CC(C3)C1)C2 (stereo unspecified)
inactive: HT-29 28.1 µM | NCI-H522 15 µM | SW-620 33 µM | U-251 17.5 µM | RPMI-8226 19.6 µM | SNB-19 23.7 µM | NCI-H23 25.4 µM | EKVX 29.6 µM | NCI-H460 34.4 µM | Hs-578T 19.1 µM | IGROV-1 > 10 µM | SK-MEL-5 15.2 µM | RXF 393 16.3 µM | HCC 2998 21.6 µM | OVCAR-8 23.9 µM | SK-OV-3 33.3 µM | DU-145 12.6 µM | MDA-MB-435 16 µM

CC(C)=NC(C(=O)O)C(C)(C)S (stereo unspecified)
inactive: HT-29 > 100 µM | NCI-H522 > 100 µM | SW-620 > 100 µM | U-251 > 100 µM | RPMI-8226 > 100 µM | SNB-19 > 100 µM | NCI-H23 > 100 µM | EKVX > 100 µM | NCI-H460 > 100 µM | NCI-H226 > 100 µM | Hs-578T > 100 µM | IGROV-1 > 100 µM | RXF 393 > 100 µM | OVCAR-8 > 100 µM | SK-OV-3 > 100 µM | DU-145 > 100 µM | MDA-MB-435 > 100 µM

O=C(c1cccs1)N(C(=S)OCc1ccccn1)c1ccccc1
inactive: HT-29 33.2 µM | SW-620 92 µM | U-251 92.5 µM | RPMI-8226 37.4 µM | SNB-19 > 100 µM | NCI-H23 84.9 µM | EKVX 14.4 µM | NCI-H460 70.3 µM | NCI-H226 32.9 µM | Hs-578T 38.3 µM | IGROV-1 28.8 µM | SK-MEL-5 51.2 µM | RXF 393 31 µM | OVCAR-8 56.5 µM | SK-OV-3 > 100 µM | DU-145 69.2 µM | MDA-MB-435 > 100 µM

CN1C(=O)N(c2ccccc2)C2(CCN(CC3COc4ccccc4O3)CC2)C1=O (stereo unspecified)
inactive: HT-29 95.1 µM | NCI-H522 > 100 µM | SW-620 4.5 µM | U-251 > 100 µM | RPMI-8226 99.1 µM | SNB-19 5.71 µM | NCI-H23 94.4 µM | EKVX > 100 µM | NCI-H460 96.2 µM | NCI-H226 59.2 µM | Hs-578T > 100 µM | IGROV-1 > 100 µM | SK-MEL-5 71.6 µM | RXF 393 > 100 µM | HCC 2998 > 100 µM | OVCAR-8 > 100 µM | DU-145 > 100 µM | MDA-MB-435 > 100 µM

Clc1ccc(Cc2nc3cc(Cl)ccc3o2)cc1
inactive: HT-29 26.8 µM | NCI-H522 21.7 µM | SW-620 56.4 µM | U-251 27.7 µM | RPMI-8226 30.9 µM | SNB-19 39.6 µM | NCI-H23 33 µM | EKVX 24.8 µM | NCI-H460 42.1 µM | NCI-H226 29.1 µM | Hs-578T 40.8 µM | IGROV-1 23.8 µM | SK-MEL-5 15.3 µM | HCC 2998 21.6 µM | OVCAR-8 32.3 µM | SK-OV-3 23 µM | DU-145 60.8 µM | MDA-MB-435 28.7 µM

NC(=O)c1c2c(n3ccccc13)C(=O)c1ccccc1C2=O
inactive: HT-29 32.2 µM | SW-620 > 100 µM | U-251 39.6 µM | RPMI-8226 > 100 µM | SNB-19 74 µM | NCI-H23 11.9 µM | EKVX > 100 µM | NCI-H460 19.4 µM | NCI-H226 52.4 µM | Hs-578T 96.6 µM | IGROV-1 42.7 µM | SK-MEL-5 16.1 µM | RXF 393 37 µM | HCC 2998 > 100 µM | OVCAR-8 > 100 µM | SK-OV-3 > 100 µM | DU-145 > 100 µM | MDA-MB-435 20.2 µM

CN(C(=O)C12C3C4(C(=O)O)C1(C(=O)N(C)C(C)(C)C)C1C2(C(=O)O)C3(C(=O)N(C)C(C)(C)C)C14C(=O)N(C)C(C)(C)C)C(C)(C)C (stereo unspecified)
inactive: HT-29 > 100 µM | NCI-H522 > 100 µM | SW-620 > 100 µM | U-251 > 100 µM | SNB-19 > 100 µM | NCI-H23 > 100 µM | EKVX > 100 µM | NCI-H460 > 100 µM | Hs-578T > 100 µM | IGROV-1 > 100 µM | SK-MEL-5 > 100 µM | RXF 393 > 100 µM | HCC 2998 > 100 µM | OVCAR-8 > 100 µM | DU-145 > 100 µM | MDA-MB-435 > 100 µM

Reference: ChEMBL document CHEMBL1201862, “PubChem BioAssay data set” (2004)
